Data on six compounds can be found in ChEMBL document CHEMBL4706724, “Novel Substituted Benzothiazole Compounds for Treating Huntington's Disease” (ACS Med Chem Lett, 2021).

pIC50: −log10 of the molar value.

For this test, the target named is Huntingtin (Homo sapiens, UniProt P42858). Briefly: Inhibition of Huntingtin protein (unknown origin) incubated for overnight in presence of MW1/MAB2166 monoclonal antibody by ELISA-based MSD electrochemiluminescence assay. On the technique in general: ELISA stands for enzyme-linked immunosorbent assay.
Huntingtin, sequence (P42858 whole entry): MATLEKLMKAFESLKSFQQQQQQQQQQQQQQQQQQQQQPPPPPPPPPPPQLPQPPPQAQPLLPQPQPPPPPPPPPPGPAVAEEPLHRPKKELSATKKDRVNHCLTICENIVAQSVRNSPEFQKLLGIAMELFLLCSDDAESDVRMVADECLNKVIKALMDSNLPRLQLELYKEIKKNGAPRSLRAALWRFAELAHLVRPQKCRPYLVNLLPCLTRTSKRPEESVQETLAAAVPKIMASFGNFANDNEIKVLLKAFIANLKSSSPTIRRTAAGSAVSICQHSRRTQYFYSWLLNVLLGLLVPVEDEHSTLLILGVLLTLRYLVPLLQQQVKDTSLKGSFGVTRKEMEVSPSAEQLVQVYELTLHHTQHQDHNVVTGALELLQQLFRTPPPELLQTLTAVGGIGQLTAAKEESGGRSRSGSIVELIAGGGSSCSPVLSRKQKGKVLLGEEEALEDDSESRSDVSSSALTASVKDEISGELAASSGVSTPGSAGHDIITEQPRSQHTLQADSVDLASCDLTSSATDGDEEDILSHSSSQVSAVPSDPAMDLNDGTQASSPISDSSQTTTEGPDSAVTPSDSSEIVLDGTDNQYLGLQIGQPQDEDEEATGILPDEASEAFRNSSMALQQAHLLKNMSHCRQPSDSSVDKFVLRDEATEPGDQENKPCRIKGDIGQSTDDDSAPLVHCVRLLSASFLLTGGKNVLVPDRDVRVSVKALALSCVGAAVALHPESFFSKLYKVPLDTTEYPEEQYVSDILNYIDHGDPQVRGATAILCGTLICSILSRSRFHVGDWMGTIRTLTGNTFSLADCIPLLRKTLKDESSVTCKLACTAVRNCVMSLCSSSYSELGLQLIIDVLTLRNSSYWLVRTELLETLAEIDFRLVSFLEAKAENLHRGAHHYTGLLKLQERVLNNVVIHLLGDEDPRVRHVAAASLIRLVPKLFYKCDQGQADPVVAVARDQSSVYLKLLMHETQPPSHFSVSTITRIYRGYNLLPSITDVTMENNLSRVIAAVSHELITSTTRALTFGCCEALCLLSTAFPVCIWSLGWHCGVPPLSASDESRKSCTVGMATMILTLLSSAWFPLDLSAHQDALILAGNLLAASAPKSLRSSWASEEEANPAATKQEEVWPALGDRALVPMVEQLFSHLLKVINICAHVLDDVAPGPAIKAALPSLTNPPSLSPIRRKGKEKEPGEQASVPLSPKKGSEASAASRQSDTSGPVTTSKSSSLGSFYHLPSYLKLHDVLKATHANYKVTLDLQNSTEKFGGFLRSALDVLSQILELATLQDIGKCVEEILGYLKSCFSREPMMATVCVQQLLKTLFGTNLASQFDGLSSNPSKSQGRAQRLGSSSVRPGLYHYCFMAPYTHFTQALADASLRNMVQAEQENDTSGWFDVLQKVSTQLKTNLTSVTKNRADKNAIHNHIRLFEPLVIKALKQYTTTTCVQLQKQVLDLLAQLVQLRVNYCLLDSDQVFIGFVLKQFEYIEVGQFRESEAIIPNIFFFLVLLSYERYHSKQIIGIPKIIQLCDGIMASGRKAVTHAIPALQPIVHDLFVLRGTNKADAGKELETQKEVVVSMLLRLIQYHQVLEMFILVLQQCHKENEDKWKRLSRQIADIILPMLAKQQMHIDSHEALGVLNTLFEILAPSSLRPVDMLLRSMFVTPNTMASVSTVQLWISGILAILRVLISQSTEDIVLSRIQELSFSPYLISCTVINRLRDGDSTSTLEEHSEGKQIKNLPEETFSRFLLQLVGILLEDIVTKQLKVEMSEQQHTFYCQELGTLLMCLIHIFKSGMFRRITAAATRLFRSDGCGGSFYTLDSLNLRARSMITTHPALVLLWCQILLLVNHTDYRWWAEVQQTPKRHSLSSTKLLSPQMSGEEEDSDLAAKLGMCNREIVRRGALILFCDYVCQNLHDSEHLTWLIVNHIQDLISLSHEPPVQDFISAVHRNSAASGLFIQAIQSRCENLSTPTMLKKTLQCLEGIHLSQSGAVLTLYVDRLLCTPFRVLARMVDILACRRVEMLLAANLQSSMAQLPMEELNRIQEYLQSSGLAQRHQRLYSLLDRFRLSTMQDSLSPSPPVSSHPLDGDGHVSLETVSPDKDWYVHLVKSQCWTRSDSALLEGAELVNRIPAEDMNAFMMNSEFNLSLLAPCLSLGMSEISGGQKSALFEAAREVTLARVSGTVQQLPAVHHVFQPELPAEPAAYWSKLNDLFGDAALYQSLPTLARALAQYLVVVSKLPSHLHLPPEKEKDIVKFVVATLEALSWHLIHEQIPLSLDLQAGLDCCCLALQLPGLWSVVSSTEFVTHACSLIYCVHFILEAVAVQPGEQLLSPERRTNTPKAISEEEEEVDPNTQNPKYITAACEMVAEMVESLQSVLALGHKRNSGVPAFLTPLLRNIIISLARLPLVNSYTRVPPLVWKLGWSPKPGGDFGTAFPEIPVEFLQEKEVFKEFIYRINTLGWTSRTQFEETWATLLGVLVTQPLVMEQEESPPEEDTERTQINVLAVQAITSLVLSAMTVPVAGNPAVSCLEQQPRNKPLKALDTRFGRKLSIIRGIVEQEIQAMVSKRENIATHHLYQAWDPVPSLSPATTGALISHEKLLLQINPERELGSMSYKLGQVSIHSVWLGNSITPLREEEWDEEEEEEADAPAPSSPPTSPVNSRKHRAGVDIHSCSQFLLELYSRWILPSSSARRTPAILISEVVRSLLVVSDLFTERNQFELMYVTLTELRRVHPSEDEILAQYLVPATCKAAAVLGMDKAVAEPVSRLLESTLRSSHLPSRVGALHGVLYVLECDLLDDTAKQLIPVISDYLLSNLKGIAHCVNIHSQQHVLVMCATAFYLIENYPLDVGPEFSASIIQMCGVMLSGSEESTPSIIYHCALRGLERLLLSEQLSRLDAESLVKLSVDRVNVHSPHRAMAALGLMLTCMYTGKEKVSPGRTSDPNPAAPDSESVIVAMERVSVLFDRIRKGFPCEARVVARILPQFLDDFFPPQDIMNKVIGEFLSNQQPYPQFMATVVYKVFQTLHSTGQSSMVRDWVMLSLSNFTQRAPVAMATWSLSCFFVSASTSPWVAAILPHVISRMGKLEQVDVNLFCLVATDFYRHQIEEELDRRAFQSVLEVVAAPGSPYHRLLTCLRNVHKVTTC
By pIC50 is commonly meant −log10 of the IC50, conventionally taken in molar units. Take `CN(c1nc2nnc(-c3ccc(-c4cn[nH]c4)cc3O)cc2s1)C1CCN(C2CC2)CC1`: the pIC50 is at least 7.00.

With `Cc1nc2ccc(-c3cc(F)c4nc(C5CCNCC5)sc4c3)cc2o1`, the pIC50 was at least 7.00.

Regarding `CN1CC2(C1)CN(c1nc3nnc(-c4ccc(-c5c[nH]nc5F)cc4O)cc3s1)C2`, the negative-log IC50 (pIC50) is at least 7.00.

For `CN(c1nc2nnc(-c3ccc(-c4c[nH]nc4F)cc3O)cc2s1)C1CCNC1` (stereo unspecified), the pIC50 is at least 7.00.

With `Oc1cc(-c2cn[nH]c2)ccc1-c1cc2sc(N3CCC34CCNCC4)nc2nn1`, the pIC50 was at least 7.00.

Regarding `Cc1cn2nc(-c3cc(F)c4nc(OC5CCN(C)CC5)sc4c3)cc(C)c2n1`, the negative-log IC50 (pIC50) is at least 7.00.
